Experimental data published in PubChem BioAssay (NCI).
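Growth conditions: 96-well plates. Treatment: test compound, 48 hours, 5 concentrations. Analysis: linear interpolation between bracketing concentrations; unreached endpoints set to highest concentration. GI50 is the concentration that inhibits growth by half. TGI is the concentration that stops growth completely.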

Experiments:
Assay in all cases: DTP human tumour cell line panel, 48 h
[1] = system: HOP-62 NSCLC
[2] = system: HCT-15 colon
[3] = system: SN12C renal
[4] = system: SNB-19 CNS
[5] = system: SNB-75 CNS
[6] = system: SF-268 CNS
[7] = system: U251 CNS
[8] = system: SF-295 CNS
[9] = system: M14 melanoma
[10] = system: SK-MEL-5 melanoma
[11] = system: DU-145 prostate
[12] = system: NCI-H23 lung
[13] = system: NCI-H522 lung
[14] = system: SW-620 colon
[15] = system: UACC-62 melanoma
[16] = system: OVCAR-3 ovarian
[17] = system: NCI/ADR-RES ovarian
[18] = system: HCT-116 colon
[19] = system: MOLT-4 leukemia
[20] = system: T-47D breast
[21] = system: RPMI-8226 leukemia
[22] = system: SK-MEL-28 melanoma
[23] = system: CAKI-1 renal
[24] = system: HOP-92 NSCLC
[25] = system: HL-60(TB) leukemia
[26] = system: MALME-3M melanoma
[27] = system: UO-31 renal
[28] = system: RXF 393 renal
[29] = system: NCI-H460 lung
[30] = system: OVCAR-5 ovarian
[31] = system: IGROV1 ovarian
[32] = system: K-562 leukemia
[33] = system: NCI-H226 lung
[34] = system: 786-0 renal
[35] = system: OVCAR-8 ovarian
[36] = system: MDA-MB-435
[37] = system: MDA-MB-231 breast
[38] = system: COLO 205 colon
[39] = system: BT-549 breast
[40] = system: KM12 colon
[41] = system: ACHN renal
[42] = system: EKVX NSCLC
[43] = system: MCF7 breast
[44] = system: SF-539 CNS
[45] = system: A549 NSCLC
[46] = system: CCRF-CEM leukemia
[47] = system: PC-3 prostate
[48] = system: HS 578T breast
[49] = system: SK-MEL-2 melanoma
[50] = system: LOX IMVI melanoma
[51] = system: TK-10 renal
[52] = system: SK-OV-3 ovarian
[53] = system: HCC-2998 colon
[54] = system: HT29 colon
[55] = system: OVCAR-4 ovarian
[56] = system: UACC-257 melanoma
[57] = system: A498 renal

Q: For `CS(=O)(=O)Nc1cc(-c2ccc3ncnc(Nc4cccc(Cl)c4F)c3c2)cnc1Cl`, which GI50 [1] is on record?
A: 2.48 µM

Q: What about the TGI [1] of the same molecule?
A: 60.7 µM

Q: And the GI50 [2]?
A: 2.78 µM

Q: What about the TGI [2] of the same molecule?
A: 14.5 µM

Q: And the GI50 [3]?
A: 3.89 µM

Q: What about the TGI [3] of the same molecule?
A: 41.2 µM

Q: What about the GI50 [4] of the same molecule?
A: 2.83 µM

Q: What about the TGI [4] of the same molecule?
A: 16.1 µM

Q: What about the GI50 [5] of the same molecule?
A: 0.463 µM

Q: What about the TGI [5] of the same molecule?
A: 7.43 µM

Q: What about the GI50 [6] of the same molecule?
A: 1.41 µM

Q: What about the TGI [6] of the same molecule?
A: 19.3 µM

Q: What about the GI50 [7] of the same molecule?
A: 2.45 µM

Q: What about the TGI [7] of the same molecule?
A: 14.9 µM

Q: And the GI50 [8]?
A: 2.47 µM

Q: What about the TGI [8] of the same molecule?
A: 12.5 µM

Q: And the GI50 [9]?
A: 3.17 µM

Q: And the TGI [9]?
A: 17 µM

Q: And the GI50 [10]?
A: 1.66 µM

Q: What about the TGI [10] of the same molecule?
A: 3.29 µM

Q: And the GI50 [11]?
A: 3.69 µM

Q: What about the TGI [11] of the same molecule?
A: 29 µM

Q: What about the GI50 [12] of the same molecule?
A: 2.33 µM

Q: What about the TGI [12] of the same molecule?
A: 10.1 µM

Q: What about the GI50 [13] of the same molecule?
A: 3 µM

Q: What about the TGI [13] of the same molecule?
A: 17 µM

Q: What about the GI50 [14] of the same molecule?
A: 3.31 µM

Q: And the TGI [14]?
A: 37.7 µM

Q: What about the GI50 [15] of the same molecule?
A: 1.76 µM

Q: And the TGI [15]?
A: 11.7 µM

Q: What about the GI50 [16] of the same molecule?
A: 1.84 µM

Q: What about the TGI [16] of the same molecule?
A: 7.52 µM

Q: What about the GI50 [17] of the same molecule?
A: 7.02 µM

Q: What about the TGI [17] of the same molecule?
A: 31.8 µM

Q: And the GI50 [18]?
A: 4.02 µM

Q: And the TGI [18]?
A: 19.9 µM

Q: What about the GI50 [19] of the same molecule?
A: 2.31 µM

Q: What about the TGI [19] of the same molecule?
A: 8.46 µM

Q: What about the GI50 [20] of the same molecule?
A: 0.382 µM

Q: And the TGI [20]?
A: 10.6 µM

Q: What about the GI50 [21] of the same molecule?
A: 2.21 µM

Q: What about the TGI [21] of the same molecule?
A: 6.11 µM

Q: What about the GI50 [22] of the same molecule?
A: 1.59 µM

Q: What about the TGI [22] of the same molecule?
A: 9.27 µM

Q: What about the GI50 [23] of the same molecule?
A: 1.82 µM

Q: And the TGI [23]?
A: 12.6 µM

Q: What about the GI50 [24] of the same molecule?
A: 0.672 µM

Q: What about the TGI [24] of the same molecule?
A: 5.31 µM

Q: What about the GI50 [25] of the same molecule?
A: 3.19 µM

Q: What about the TGI [25] of the same molecule?
A: 40.2 µM

Q: What about the GI50 [26] of the same molecule?
A: 1.83 µM

Q: And the TGI [26]?
A: 7.66 µM

Q: And the GI50 [27]?
A: 1.24 µM

Q: And the TGI [27]?
A: 4.3 µM

Q: What about the GI50 [28] of the same molecule?
A: 1.67 µM

Q: What about the TGI [28] of the same molecule?
A: 4.93 µM

Q: What about the GI50 [29] of the same molecule?
A: 4.09 µM

Q: And the TGI [29]?
A: > 100 µM

Q: What about the GI50 [30] of the same molecule?
A: 2.17 µM

Q: And the TGI [30]?
A: 19.1 µM

Q: What about the GI50 [31] of the same molecule?
A: 1.02 µM

Q: And the TGI [31]?
A: 4.34 µM

Q: And the GI50 [32]?
A: 4.2 µM

Q: What about the TGI [32] of the same molecule?
A: > 100 µM

Q: And the GI50 [33]?
A: 2.57 µM

Q: And the TGI [33]?
A: 18.2 µM

Q: And the GI50 [34]?
A: 3.63 µM

Q: And the TGI [34]?
A: 38.5 µM

Q: And the GI50 [35]?
A: 4.03 µM

Q: And the TGI [35]?
A: 58.5 µM

Q: And the GI50 [36]?
A: 4.73 µM

Q: What about the TGI [36] of the same molecule?
A: 21.9 µM

Q: What about the GI50 [37] of the same molecule?
A: 2.1 µM

Q: What about the TGI [37] of the same molecule?
A: 8.06 µM

Q: And the GI50 [38]?
A: 4.23 µM

Q: What about the TGI [38] of the same molecule?
A: 27.8 µM

Q: And the GI50 [39]?
A: 1.84 µM

Q: And the TGI [39]?
A: 7.65 µM

Q: And the GI50 [40]?
A: 4.32 µM

Q: What about the TGI [40] of the same molecule?
A: 16.5 µM

Q: What about the GI50 [41] of the same molecule?
A: 4.09 µM

Q: What about the TGI [41] of the same molecule?
A: > 100 µM

Q: And the GI50 [42]?
A: 1.44 µM

Q: What about the TGI [42] of the same molecule?
A: 6.27 µM

Q: And the GI50 [43]?
A: 0.624 µM

Q: And the TGI [43]?
A: 20.1 µM

Q: And the GI50 [44]?
A: 2.26 µM

Q: And the TGI [44]?
A: 7.98 µM

Q: And the GI50 [45]?
A: 5.3 µM

Q: What about the TGI [45] of the same molecule?
A: 24.1 µM

Q: What about the GI50 [46] of the same molecule?
A: 2.59 µM

Q: And the TGI [46]?
A: > 100 µM

Q: And the GI50 [47]?
A: 2.27 µM

Q: What about the TGI [47] of the same molecule?
A: 11.6 µM

Q: And the GI50 [48]?
A: 0.274 µM

Q: And the TGI [48]?
A: 2.77 µM

Q: And the GI50 [49]?
A: 2.13 µM

Q: And the TGI [49]?
A: 6.79 µM

Q: What about the GI50 [50] of the same molecule?
A: 1.58 µM

Q: What about the TGI [50] of the same molecule?
A: 5.45 µM

Q: And the GI50 [51]?
A: 1.77 µM

Q: And the TGI [51]?
A: 8.73 µM

Q: And the GI50 [52]?
A: 1.99 µM

Q: What about the TGI [52] of the same molecule?
A: 8.81 µM

Q: What about the GI50 [53] of the same molecule?
A: 1.66 µM

Q: And the TGI [53]?
A: 5.01 µM

Q: What about the GI50 [54] of the same molecule?
A: 3.3 µM

Q: What about the TGI [54] of the same molecule?
A: 38.4 µM

Q: What about the GI50 [55] of the same molecule?
A: 5.82 µM

Q: And the TGI [55]?
A: > 100 µM

Q: What about the GI50 [56] of the same molecule?
A: 2.62 µM

Q: And the TGI [56]?
A: 18 µM

Q: And the GI50 [57]?
A: 1.68 µM

Q: What about the TGI [57] of the same molecule?
A: 4.1 µM
